Test [1] concerns Brassica rapa subsp. chinensis. Nature of the test: whole plant or invertebrate. It counts as functional. The settings on record: 72 h, read-out: GI.
Description: Phytotoxicity against Brassica rapa subsp. chinensis assessed as growth inhibition of hypocotyl at 100 ppm treated to seeds after 3 days
Test [2] relates to Brassica rapa subsp. chinensis. As to the kind of experiment: whole plant or invertebrate. Format: functional. The conditions noted are these: 72 h, read-out: GI. This is another data set of the same source.
Description: Phytotoxicity against Brassica rapa subsp. chinensis assessed as growth inhibition of radicle at 100 ppm treated to seeds after 3 days
The subject of another test is Athelia rolfsii. As to the kind of experiment: microbe, parasite or virus in culture. Format: functional. The conditions noted are these: Agroathelia rolfsii, read-out: GI.
For test [3], the system named is Pythium. Nature of the test: microbe, parasite or virus in culture. The conditions noted are these: read-out: GI. Format: functional.
Description: Fungitoxic activity against Pythium sp. assessed as mycelial growth inhibition at 100 ppm after 4 to 5 days by agar dilution method
Test [4] concerns Pythium. Nature of the test: Fungitoxic activity against Pythium sp. assessed as mycelial growth inhibition at 10 ppm after 4 to 5 days by agar dilution method. The conditions noted are these: read-out: GI.

Data on 14 molecules can be found in ChEMBL document CHEMBL3046649, “Fungitoxic and Phytotoxic Activities of Cinnamic Acid Esters and Amides” (2000).

Description for Athelia rolfsii: Fungitoxic activity against Athelia rolfsii assessed as mycelial growth inhibition at 100 ppm after 4 to 5 days by agar dilution method

As to `Cc1ccc(C(C)C)c(OC(=O)/C=C/c2ccc(C(C)C)cc2)c1`, the inhibition of growth at 100 ppm in test [1] was 42%; in test [2], 30%; with Athelia rolfsii, 0%; in the test on Pythium [3], 2%.
For the molecule `Cc1ccc(NC(=O)/C=C/c2ccccc2)cc1` [N-P-TOLYLCINNAMAMIDE], the inhibition of growth at 100 ppm in test [1] came to 24%; in test [2] it was 57%; with Athelia rolfsii, 47%; in the test on Pythium [3] it was 59%. In addition, in the test on Pythium [4], the inhibition of growth at 10 ppm is 35%.
Consider `CCCCCCCCNC(=O)/C=C/c1ccccc1` [N-OCTYLCINNAMAMIDE], for which the inhibition of growth at 100 ppm in test [1] was found to be 34%; in test [2], 42%; with Athelia rolfsii, 46%; in the test on Pythium [3], 24%.
In the case of `O=C(/C=C/c1ccccc1)NCc1ccccc1Cl` [N-(2-CHLOROBENZYL)CINNAMAMIDE], the inhibition of growth at 100 ppm stood at 70% in test [1], 88% in test [2], 41% with Athelia rolfsii and 23% in the test with Pythium [3].
Taken in the same sequence, the figures for `Cc1ccc(C(C)C)c(OC(=O)/C=C/c2ccc(Cl)cc2Cl)c1` were 33%, 0%, 33% and 29%.
Consider `Cc1cccc(C)c1NC(=O)/C=C/c1ccccc1`, for which the inhibition of growth at 100 ppm in test [1] was 0%; in test [2], 0%; with Athelia rolfsii, 13%; with Pythium [3], 31%.
For the molecule `CCc1ccc(NC(=O)/C=C/c2ccccc2)cc1`, the inhibition of growth at 100 ppm in test [1] amounted to 10%; in test [2], 20%; in the test with Athelia rolfsii, 53%; with Pythium [3], 34%.
Taken in the same sequence, the figures for `CCCCOC(=O)/C=C/c1ccccc1` [BUTYL CINNAMATE] were 5%, 0%, 42% and 17%.
`Cc1cccc(NC(=O)/C=C/c2ccccc2)c1C`: the inhibition of growth at 100 ppm was found to be 32% in test [1], 56% in test [2], 12% in the test on Athelia rolfsii and 16% with Pythium [3].
On the same counts, the results for `CCCCNC(=O)/C=C/c1ccc(Cl)cc1Cl` [N-BUTYL-3-(2,4-DICHLOROPHENYL)ACRYLAMIDE] are 17%, 49%, 16% and 9%.
Taken in the same sequence, the figures for `Cc1ccc(OC(=O)/C=C/c2ccc(C(C)C)cc2)c(C(C)C)c1` were 39%, 28%, 24% and 15%.
On the same counts, the results for `CC(C)=CCCC(C)CCOC(=O)/C=C/c1ccc(Cl)cc1Cl` (configuration not stated) [3,7-DIMETHYLOCT-6-ENYL 3-(2,4-DICHLOROPHENYL)ACRYLATE] are 25%, 0%, 15% and 0%.
In the case of `CCc1ccccc1NC(=O)/C=C/c1ccccc1`, the inhibition of growth at 100 ppm in test [1] was 0%; in test [2] it was 21%; with Athelia rolfsii, 19%; with Pythium [3] it was 26%.
As for `CC(C)=CCC/C(C)=C/COC(=O)/C=C/c1ccc(Cl)cc1Cl`, the inhibition of growth at 100 ppm in test [1] is 26%; in test [2], 1%; with Athelia rolfsii, 30%; in the test with Pythium [3], 24%.
